Experimental data from PubChem BioAssay AID194 (DTP/NCI, 2004).
Results filed as inconclusive are left out. The calls were made as follows: active = survival T/C of 150% or more; inactive = T/C below 125% in these data.

Tested on: BDF1 mice, B16 melanoma s.c., survival/tumor T/C
Experiment: NCI In Vivo Anticancer Drug Screen. Data for tumor model B16 Melanoma (subcutaneous) in B6D2F1 (BDF1) mice
Conditions: endpoint: median survival time, higher = longer survival
Description: The antitumor activity of compounds was measured in mice bearing transplantable tumors. Survival or tumor size were measured and the results are expressed as the measurement made in the treated group (T) divided by the measurement made in the vehicle treated control group (C). The tumor model used in this assay is B16 Melanoma (subcutaneous) in B6D2F1 (BDF1) mice

Measured: T/C

C/C=C(\C)C(=O)O[C@@H]1c2cc3c(cc2-c2c(cc(OC)c(OC)c2OC)[C@@H]2C(=O)OC[C@@H]12)OCO3
inactive: dose: 1.25 mg/kg/injection, schedule: Q01DX009 (ip), vehicle: Klucel (hydroxypropylcellulose) (HPC) 109 % of control | dose: 2.5 mg/kg/injection, schedule: Q01DX009 (ip), vehicle: Klucel (hydroxypropylcellulose) (HPC) 101 % of control | dose: 5.0 mg/kg/injection, schedule: Q01DX009 (ip), vehicle: Klucel (hydroxypropylcellulose) (HPC) 109 % of control | dose: 10.0 mg/kg/injection, schedule: Q01DX009 (ip), vehicle: Klucel (hydroxypropylcellulose) (HPC) 101 % of control

Cn1ncc2c(N)ncnc21
inactive: dose: 2.0 mg/kg/injection, schedule: Q01DX009 (ip), vehicle: Klucel (hydroxypropylcellulose) (HPC) 104 % of control | dose: 4.0 mg/kg/injection, schedule: Q01DX009 (ip), vehicle: Klucel (hydroxypropylcellulose) (HPC) 106 % of control | dose: 8.0 mg/kg/injection, schedule: Q01DX009 (ip), vehicle: Klucel (hydroxypropylcellulose) (HPC) 115 % of control

O=C1C=CC(=O)O1 (tested in a mixture with another compound)
inactive: dose: 6.25 mg/kg/injection, schedule: Q01DX009 (ip), vehicle: other 92 % of control | dose: 12.5 mg/kg/injection, schedule: Q01DX009 (ip), vehicle: other 101 % of control | dose: 25.0 mg/kg/injection, schedule: Q01DX009 (ip), vehicle: other 120 % of control

COc1cc(NS(C)(=O)=O)ccc1Nc1c2ccccc2nc2ccccc12
inactive: dose: 0.5 mg/kg/injection, schedule: Q01DX009 (ip), vehicle: other 103 % of control | dose: 1.0 mg/kg/injection, schedule: Q01DX009 (ip), vehicle: other 98 % of control | dose: 2.0 mg/kg/injection, schedule: Q01DX009 (ip), vehicle: other 89 % of control | dose: 2.0 mg/kg/injection, schedule: Q01DX009 (ip), vehicle: saline with Tween-80 102 % of control | dose: 3.0 mg/kg/injection, schedule: Q01DX009 (ip), vehicle: saline with Tween-80 101 % of control | dose: 4.5 mg/kg/injection, schedule: Q01DX009 (ip), vehicle: saline with Tween-80 98 % of control | dose: 9.0 mg/kg/injection, schedule: Q04DX003 (ip), vehicle: saline with Tween-80 89 % of control | dose: 13.0 mg/kg/injection, schedule: Q04DX003 (ip), vehicle: saline with Tween-80 108 % of control | dose: 20.0 mg/kg/injection, schedule: Q01DX001 (ip), vehicle: saline with Tween-80 101 % of control | dose: 20.0 mg/kg/injection, schedule: Q04DX003 (ip), vehicle: saline with Tween-80 98 % of control | dose: 30.0 mg/kg/injection, schedule: Q01DX001 (ip), vehicle: saline with Tween-80 107 % of control | dose: 45.0 mg/kg/injection, schedule: Q01DX001 (ip), vehicle: saline with Tween-80 107 % of control

CSCCC(N)C(=O)O (stereo unspecified)
inactive: dose: 40.0 mg/kg/injection, schedule: Q01DX009 (ip), vehicle: Klucel (hydroxypropylcellulose) (HPC) 108 % of control | dose: 80.0 mg/kg/injection, schedule: Q01DX009 (ip), vehicle: Klucel (hydroxypropylcellulose) (HPC) 97 % of control | dose: 160.0 mg/kg/injection, schedule: Q01DX009 (ip), vehicle: Klucel (hydroxypropylcellulose) (HPC) 97 % of control | dose: 320.0 mg/kg/injection, schedule: Q01DX009 (ip), vehicle: Klucel (hydroxypropylcellulose) (HPC) 122 % of control

Cc1[nH]nc(-c2ccon2)c1N=O
inactive: dose: 12.5 mg/kg/injection, schedule: Q01DX009 (ip), vehicle: saline with Tween-80 91 % of control | dose: 25.0 mg/kg/injection, schedule: Q01DX009 (ip), vehicle: saline with Tween-80 96 % of control | dose: 50.0 mg/kg/injection, schedule: Q01DX009 (ip), vehicle: saline with Tween-80 100 % of control | dose: 100.0 mg/kg/injection, schedule: Q01DX009 (ip), vehicle: saline with Tween-80 87 % of control

Cc1c[n+]2c3ccccc3c3ccccc3c2s1
inactive: dose: 20.0 mg/kg/injection, schedule: Q01DX009 (ip), vehicle: Klucel (hydroxypropylcellulose) (HPC) 121 % of control
